According to patent US7550485B2, “Substituted N-heterocycle derivatives and methods of their use” (Wyeth, priority 2003, dated 2009):
Where a name gives a salt, the structure may show the parent alone.

Molecular target: T1, hNET (Homo sapiens, UniProt P23975)
T1 construct: expressed in transfected cells
Experiment: Norepinephrine (NE) uptake assay in MDCK-Net6 cells stably transfected with human hNET
Type: cell-based
Conditions: [3H]NE uptake; for inhibition at 1 µM: MDCK-Net6, 1 μM test compound; for EC50: test range 1 to 10,000 nM; for inhibition at 10 µM: MDCK-Net6, 10 μM test compound (stated in cell)
Description: MDCK-Net6 cells, stably transfected with human hNET (Pacholczyk, T., R. D. Blakely, and S. G. Amara, Nature, 1991, 350(6316): p. 350-4) were cultured in growth medium containing high glucose DMEM (Gibco, Cat. No. 11995), 10% FBS (dialyzed, heat-inactivated, US Bio-Technologies, Lot FBD1129HI) and 500 μg/ml G418 (Gibco, Cat. No. 10131). Cells were plated at 300,000/T75 flask and cells were split twice weekly. The JAR cell line (human placental choriocarcinoma) was purchased from ATCC (Cat. No. HTB-144). The cells were cultured in growth medium containing RPMI 1640 (Gibco, Cat. No. 72400), 10% FBS (Irvine, Cat. No. 3000), 1% sodium pyruvate (Gibco, Cat. No. 1136) and 0.25% glucose. Cells were plated at 250,000 cells/T75 flask and split twice weekly. For all assays, cells were plated in Wallac 96-well sterile plates (PerkinElmer, Cat. No. 3983498).
Norepinephrine (NE) Uptake Assay
On day 1, cells were plated at 3,000 cells/well in growth medium and maintained in a cell incubator (37° C., 5% CO2). On day 2, growth medium was replaced with 200 μl of assay buffer (25 mM HEPES; 120 mM NaCl; 5 mM KCl; 2.5 mM CaCl2; 1.2 mM MgSO4; 2 mg/ml glucose (pH 7.4, 37° C.)) containing 0.2 mg/ml ascorbic acid and 10 μM pargyline. Plates containing cells with […] of assay buffer were equilibrated for 10 minutes at 37° C. prior to addition of compounds. A stock solution of desipramine was prepared in DMSO (10 mM) and delivered to triplicate wells containing cells for a final test concentration of 1 μM. Data from these wells were used to define non-specific NE uptake (minimum NE uptake). Test compounds were prepared in DMSO (10 mM) and diluted in assay buffer according to test range (1 to 10,000 nM). Twenty-five microliters of assay buffer (maximum NE uptake) or test compound were added directly to triplicate wells containing cells in 200 μl of assay buffer. The cells in assay buffer with test compounds were incubated for 20 minutes at 37° C. To initiate the NE uptake, [^3H]NE diluted in assay buffer (120 nM final assay concentration) was delivered in 25 μl aliquots to each well and the plates were incubated for 5 minutes (37° C.). The reaction was terminated by decanting the supernatant from the plate. The plates containing cells were washed twice with 200 μl assay buffer (37° C.) to remove free radioligand. The plates were then inverted, left to dry for 2 minutes, then reinverted and air-dried for an additional 10 minutes. The cells were lysed in 25 μl of 0.25 N NaOH solution (4° C.), placed on a shake table and vigorously shaken for 5 minutes. After cell lysis, 75 μl of scintillation cocktail was added to each well and the plates were sealed with film tape. The plates were returned to the shake table and vigorously shaken for a minimum of 10 minutes to ensure adequate partitioning of organic and aqueous solutions. The plates were counted in a Wallac Microbeta counter (PerkinElmer) to collect the raw cpm data.
For each experiment, a data stream of cpm values collected from the Wallac Microbeta counter was downloaded to a Microsoft Excel statistical application program. Calculations of EC50 values were made using the transformed-both-sides logistic dose response program written by Wyeth Biometrics Department. The statistical program uses mean cpm values from wells representing maximum binding or uptake (assay buffer) and mean cpm values from wells representing minimum binding or uptake ((1 μM desipramine (hNET) or 1 μM paroxetine (hSERT)). Estimation of the EC50 value was completed on a log scale and the line was fit between the maximum and minimum binding or uptake values. All graphic data representation was generated by normalizing each data point to a mean percent based on the maximum and minimum binding or uptake values. The EC50 values reported from multiple experiments were calculated by pooling the raw data from each experiment and analyzing the pooled data as one experiment.

T1 sequence (P23975 whole entry): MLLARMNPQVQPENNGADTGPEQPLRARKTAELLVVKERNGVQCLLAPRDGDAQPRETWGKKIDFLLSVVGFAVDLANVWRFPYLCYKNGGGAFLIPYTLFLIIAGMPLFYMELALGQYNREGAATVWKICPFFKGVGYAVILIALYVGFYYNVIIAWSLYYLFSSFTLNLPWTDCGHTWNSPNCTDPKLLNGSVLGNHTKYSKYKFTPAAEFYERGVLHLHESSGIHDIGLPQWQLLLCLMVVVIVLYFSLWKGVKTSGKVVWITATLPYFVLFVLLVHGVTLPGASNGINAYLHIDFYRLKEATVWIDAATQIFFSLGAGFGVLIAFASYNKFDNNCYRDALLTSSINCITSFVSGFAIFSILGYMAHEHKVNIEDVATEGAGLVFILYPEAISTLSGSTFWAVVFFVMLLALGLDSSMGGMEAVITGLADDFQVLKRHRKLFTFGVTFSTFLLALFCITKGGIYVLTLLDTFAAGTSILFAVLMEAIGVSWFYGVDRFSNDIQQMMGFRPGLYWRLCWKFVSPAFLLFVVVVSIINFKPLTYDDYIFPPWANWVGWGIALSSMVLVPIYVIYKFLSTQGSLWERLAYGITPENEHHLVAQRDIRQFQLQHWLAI

inhibition at 1 µM	EC50	inhibition at 10 µM	Compound
79%	530 nM		CNC1CCN(CC(c2cccc(C(F)(F)F)c2)C2(O)CCCCC2)CC1 (centres unmarked) [Example 30, 1-{2-[4-(methylamino)piperidin-1-yl]-1-[3-(trifluoromethyl)phenyl]ethyl}cyclohexanol dihydrochloride]
69%	170 nM		NC1CCN(CC(c2ccc3ccccc3c2)C2(O)CCCCC2)CC1 (centres unmarked) [Example 32, 1-[2-(4-aminopiperidin-1-yl)-1-(2-naphthyl)ethyl]cyclohexanol dihydrochloride]
82%	400 nM		COc1ccc2cc([C@H](CN3CCC(N4CCCCC4)CC3)C3(O)CCCCC3)ccc2c1 (single isomer, unassigned) [Example 354, dihydrochloride]
19.2%			CN[C@H]1CCN(CC(c2cccc3ccccc23)C2(O)CCCCC2)C1 (stereo partly drawn) [Example 206, 1-[2-[(3S)-3-(methylamino)pyrrolidin-1-yl]-1-(1-naphthyl)ethyl]cyclohexanol dihydrochloride]
65%			CN(C)[C@H]1CCN(CC(c2ccc(OCc3ccccc3)cc2)C2(O)CCCCC2)C1 (stereo partly drawn) [Example 214, 1-{1-[4-(benzyloxy)phenyl]-2-[(3S)-3-(dimethylamino)pyrrolidin-1-yl]ethyl}cyclohexanol dihydrochloride]
75.2%			NC1CCN(CC(c2cccc(Oc3ccccc3)c2)C2(O)CCCCC2)CC1 (centres unmarked) [Example 315, 1-[2-(4-aminopiperidin-1-yl)-1-(3-phenoxyphenyl)ethyl]cyclohexanol dihydrochloride]
39%			CN(C)[C@@H]1CCN(CC(c2ccc3ccccc3c2)C2(O)CCCCC2)C1 (stereo partly drawn) [Example 375, 1-[2-[(3R)-3-(dimethylamino)pyrrolidin-1-yl]-1-(2-naphthyl)ethyl]cyclohexanol dihydrochloride]
		84.2%	CN(C)[C@H]1CCN(CC(c2cccc(OC(F)(F)F)c2)C2(O)CCCCC2)C1 (stereo partly drawn) [Example 217, 1-{2-[(3S)-3-(dimethylamino)pyrrolidin-1-yl]-1-[3-(trifluoromethoxy)phenyl]ethyl}cyclohexanol dihydrochloride]
70%	50 nM		OC1(C(CN2CCC(N3CCCC3)CC2)c2ccc3ccccc3c2)CCCCC1 (centres unmarked) [Example 31, 1-[1-(2-naphthyl)-2-(4-pyrrolidin-1-ylpiperidin-1-yl)ethyl]cyclohexanol dihydrochloride]
88%	260 nM		OC1(C(CN2CCC(N3CCCCC3)CC2)c2cccc(C(F)(F)F)c2)CCCCC1 (centres unmarked) [Example 20, 1-{2-(1,4′-bipiperidin-1′-yl)-1-[3-(trifluoromethyl)phenyl]ethyl}cyclohexanol dihydrochloride]
17.6%			CN(C)[C@@H]1CCCN(CC(c2cccc(OC(F)(F)F)c2)C2(O)CCCCC2)C1 (stereo partly drawn) [Example 188, 1-{2-[(3R)-3-(dimethylamino)piperidin-1-yl]-1-[3-(trifluoromethoxy)phenyl]ethyl}cyclohexanol dihydrochloride]
72.5%			OC1CCN(CC(c2ccc(OCc3ccccc3)c(Cl)c2)C2(O)CCCCC2)CC1 (centres unmarked) [Example 241, 1-[2-[4-(benzyloxy)-3-chlorophenyl]-2-(1-hydroxycyclohexyl)ethyl]piperidin-4-ol hydrochloride]
84.2%			CNC1CCN(CC(c2cccc(Cl)c2)C2CCCC2)CC1 (centres unmarked) [Example 228, 1-[2-(3-chlorophenyl)-2-cyclopentylethyl]-N-methylpiperidin-4-amine dihydrochloride]
88.1%			CN(C)C1CCN(CC(c2ccc(Cl)c(Cl)c2)C2(O)CCCCC2)CC1 (centres unmarked) [Example 320, 1-{1-(3,4-dichlorophenyl)-2-[4-(dimethylamino)piperidin-1-yl]ethyl}cyclohexanol dihydrochloride]
		4.1%	CCCC(O)(CCC)C(CN1CCC(N)CC1)c1cccc(Cl)c1 (centres unmarked) [Example 282, 4-[2-(4-aminopiperidin-1-yl)-1-(3-chlorophenyl)ethyl]heptan-4-ol dihydrochloride]
66.1%			CN(C)C1CCN(CC(c2cccc(C(F)(F)F)c2)C2(O)CCCCC2)CC1 (centres unmarked) [Example 321, 1-{2-[4-(dimethylamino)piperidin-1-yl]-1-[3-(trifluoromethyl)phenyl]ethyl}cyclohexanol dihydrochloride]
39.5%			CN(C)[C@H]1CCN(CC(c2ccc3ccccc3c2)C2(O)CCCCC2)C1 (stereo partly drawn) [Example 205, 1-[2-[(3S)-3-(dimethylamino)pyrrolidin-1-yl]-1-(2-naphthyl)ethyl]cyclohexanol dihydrochloride]
88.8%			N[C@H]1CCN(CC(c2ccc(OCc3ccccc3)c(Cl)c2)C2(O)CCCCC2)C1 (stereo partly drawn) [Example 210, 1-{2-[(3S)-3-aminopyrrolidin-1-yl]-1-[4-(benzyloxy)-3-chlorophenyl]ethyl}cyclohexanol dihydrochloride]
56%			NC1CCN(CC(c2cccc(C(F)(F)F)c2)C2(O)CCCCC2)CC1 (centres unmarked) [Example 39, 1-{2-(4-aminopiperidin-1-yl)-1-[3-(trifluoromethyl)phenyl]ethyl}cyclohexanol dihydrochloride]
12.3%			CN(C)[C@H]1CCCN(CC(c2cccc(OC(F)(F)F)c2)C2(O)CCCCC2)C1 (stereo partly drawn) [Example 191, 1-{2-[(3S)-3-(dimethylamino)piperidin-1-yl]-1-[3-(trifluoromethoxy)phenyl]ethyl}cyclohexanol dihydrochloride]
70.4%			N[C@H]1CCN(CC(c2ccc3ccccc3c2)C2(O)CCCCC2)C1 (stereo partly drawn) [Example 204, 1-[2-[(3S)-3-aminopyrrolidin-1-yl]-1-(2-naphthyl)ethyl]cyclohexanol dihydrochloride]
27.5%			N[C@@H]1CCN(CC(c2cccc(C(F)(F)F)c2)C2(O)CCCCC2)C1 (stereo partly drawn) [Example 224, 1-{2-[(3R)-3-aminopyrrolidin-1-yl]-1-[3-(trifluoromethyl)phenyl]ethyl}cyclohexanol dihydrochloride]
79%			COc1cc(C(CN2CCC(N)CC2)C2(O)CCCCC2)ccc1OCc1ccccc1 (centres unmarked) [Example 450, 1-{2-(4-aminopiperidin-1-yl)-1-[4-(benzyloxy)-3-methoxyphenyl]ethyl}cyclohexanol dihydrochloride]
74.3%			CN(C)[C@@H]1CCN(CC(c2cccc(Cl)c2)C2(O)CCCCC2)C1 (stereo partly drawn) [Example 202, 1-{1-(3-chlorophenyl)-2-[(3R)-3-(dimethylamino)pyrrolidin-1-yl]ethyl}cyclohexanol dihydrochloride]
59%	52 nM		NC1CCN(CC(c2cccc(Cl)c2)C2(O)CCCCC2)CC1 (centres unmarked) [Example 35, 1-[2-(4-aminopiperidin-1-yl)-1-(3-chlorophenyl)ethyl]cyclohexanol dihydrochloride]
97%	160 nM		OC1(C(CN2CCC(N3CCCCC3)CC2)c2cccc(Br)c2)CCCCC1 (centres unmarked) [Example 4, 1-[2-(1,4′-bipiperidin-1′-yl)-1-(3-bromophenyl)ethyl]cyclohexanol dihydrochloride]
88%	88 nM		CNC1CCN(CC(c2cccc(Br)c2)C2(O)CCCCC2)CC1 (centres unmarked) [Example 19, 1-{1-(3-bromophenyl)-2-[4-(methylamino)piperidin-1-yl]ethyl}cyclohexanol dihydrochloride]
